The target in test [1] is T1, SotB (Escherichia coli, UniProt P31122).
T1 construct: The full-length sotB and lapC genes from the E. coli MG1655 genome were subcloned into the cloning vector pET28a; 8xHis (C); made in house; host or cells: E. coli C43(DE3)
The test can be described thus: Cell based radiotracer uptake assay. The note with it: E. coli C43(DE3), 0.1 μM tracer, 1 h, p < 0.01. The procedure: The cell-based uptake assay was performed with the following protocol. Plasmids pET28a and pET28a/sotB were transformed into E. coli C43(DE3) competent cells, respectively. Then, these two kinds of cells were grown in LB medium at 37°C and induced with 0.2 mM IPTG for 1 h, when the cell density reached an OD600 of about 1.5. Cells were then harvested by centrifugation. After being washed three times with MK buffer (150 mM KCl, 5 mM MES, pH 6.5), the cells were resuspended in the same buffer to an OD600 of 2.0. To measure the transport activity of SotB protein, took 5 ml of the above cell suspension, respectively, and added ^3H-L-arabinose (American Radiolabeled Chemicals) at a final concentration of 0.1 μM. All the reactions lasted 1 h and were stopped by diluting the cell suspension with 5 ml ice-cold MK buffer. Cells were then harvested by centrifugation. After being washed three times with ddH2O, the cells were resuspended in 5 ml ddH2O, respectively. Then the cells were added to the sample bottle, respectively, and mixed with the same volume of excess scintillation, and then taken for liquid scintillation counting. All the experiments were repeated at least three times.

Test [2] concerns the target T1, SotB. The test can be described thus: SPR affinity assay, wild-type SotB. The test is classed as binding. As for the experimental part: (§1) The instrument used in surface plasmon resonance (SPR) affinity assays was OpenSPR (Nicoya, Canada) and the chip used was COOH sensor chip (Nicoya, Canada). SotB and its variants were as ligands. IPTG, L-arabinose, D-xylose, D-glucose, D-fructose, and D-mannose were as small molecules. Using HSB-EP buffer (10 mM HEPES, 150 mM NaCl, 3 mM EDTA, 0.005% Tween-20, pH7.4) as test buffer and setting flow rate 150 μl/min after installed COOH chip according to OpenSPRTM instrument standard operating procedure. After the signal baseline was reached, loading 200 μl 80% isopropyl alcohol and ran for 10 s to drain bubbles. After reaching baseline, the sample ring was rinsed with HSB-EP buffer and emptied with air. After the signal reached the baseline, loading 200 μl EDC (400 mM, Sigma)/NHS (100 mM, Sigma; 1:1) solution with a flow rate 20 μl/min for 4 min. Then, loading 200 μl ligand (SotB/SotB variants) diluted by the activation buffer (sodium acetate, 10 mM, pH3.5) and ran for 4 min (20 μl/min). Then the sample ring was rinsed with HSB-EP buffer and emptied with air. Loading 200 μl 1 M ethanolamine (Sigma) blocking solution (20 μl/min, 4 min), rinsed the sample ring with HSB-EP buffer, and emptied the sample ring with air. Observing baseline for 5 min to ensure stability. The small molecules were diluted with PBS buffer (2 mM of KH2PO4, 10 mM of Na2HPO4, 2.7 mM of KCl, and 137 mM of NaCl at pH 7.4), and the concentration was shown in the experimental results. The flow rate for small molecules was performed at 20 μl/min. The binding time of small molecule and ligand was 240 s, and the dissociation was 240 s. The analysis software used for the experimental results was TraceDrawer, and the analysis method was one-to-one analysis model.

A further test has as its target T2, SotB S339A (Escherichia coli, UniProt P31122, S339A).
T2 construct: The full-length sotB and lapC genes from the E. coli MG1655 genome were subcloned into the cloning vector pET28a; 8xHis (C); made in house; host or cells: E. coli C43(DE3)
T2 sequence (P31122 1-396 S339A): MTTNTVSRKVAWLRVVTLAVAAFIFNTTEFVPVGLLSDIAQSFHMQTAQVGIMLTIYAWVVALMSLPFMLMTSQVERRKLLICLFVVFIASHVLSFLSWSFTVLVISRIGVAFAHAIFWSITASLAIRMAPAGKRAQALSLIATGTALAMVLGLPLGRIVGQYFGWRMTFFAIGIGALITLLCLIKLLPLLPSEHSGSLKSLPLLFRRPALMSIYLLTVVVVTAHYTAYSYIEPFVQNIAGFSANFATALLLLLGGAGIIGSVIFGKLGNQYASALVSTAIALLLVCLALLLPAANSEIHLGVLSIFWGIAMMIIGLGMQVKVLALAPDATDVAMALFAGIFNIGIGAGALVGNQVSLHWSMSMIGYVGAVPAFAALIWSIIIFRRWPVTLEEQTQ
The test can be described thus: SPR affinity assay, SotB variant S339A. Conditions: read-out: KD, binding affinity with S339A. The procedure: as §1, with “The small molecules were diluted with PBS buffer (2 mM of KH2PO4, 10 mM of Na2HPO4, 2.7 mM of KCl, and 137 mM of NaCl at pH 7.4), and the concentration was shown in the experimental results. The flow rate for small molecules was performed at 20 μl/min. The binding time of small molecule and ligand was 240 s, and the dissociation was 240 s. The analysis software used for the experimental results was TraceDrawer, and the analysis method was one-to-one analysis model.” left out

The next test concerns the target T3, SotB W119A (Escherichia coli, UniProt P31122, W119A).
T3 construct: The full-length sotB and lapC genes from the E. coli MG1655 genome were subcloned into the cloning vector pET28a; 8xHis (C); made in house; host or cells: E. coli C43(DE3)
T3 sequence (P31122 1-396 W119A): T2 sequence (P31122 1-396 S339A) with W119A, A339S
The test is described as follows: SPR affinity assay, SotB variant W119A. Conditions: read-out: KD, binding affinity with W119A. The procedure:
as §1, with “The small molecules were diluted with PBS buffer (2 mM of KH2PO4, 10 mM of Na2HPO4, 2.7 mM of KCl, and 137 mM of NaCl at pH 7.4), and the concentration was shown in the experimental results. The flow rate for small molecules was performed at 20 μl/min. The binding time of small molecule and ligand was 240 s, and the dissociation was 240 s. The analysis software used for the experimental results was TraceDrawer, and the analysis method was one-to-one analysis model.” left out

The target of the next test is T4, SotB N343A (Escherichia coli, UniProt P31122, N343A).
T4 construct: The full-length sotB and lapC genes from the E. coli MG1655 genome were subcloned into the cloning vector pET28a; 8xHis (C); made in house; host or cells: E. coli C43(DE3)
T4 sequence (P31122 1-396 N343A): T2 sequence (P31122 1-396 S339A) with A339S, N343A
The test is described as follows: SPR affinity assay, SotB variant N343A. Conditions: SotB variant N343A, read-out: KD, binding affinity with N343A. The test is classed as binding. The procedure:
as §1

The next test addresses T5, SotB H115A (Escherichia coli, UniProt P31122, H115A).
T5 construct: The full-length sotB and lapC genes from the E. coli MG1655 genome were subcloned into the cloning vector pET28a; 8xHis (C); made in house; host or cells: E. coli C43(DE3)
T5 sequence (P31122 1-396 H115A): T2 sequence (P31122 1-396 S339A) with H115A, A339S
The test is described as follows: SPR affinity assay, SotB variant H115A. The test is classed as binding. Conditions: SotB variant H115A, read-out: KD, binding affinity with H115A. As for the experimental part: as §1

Another test addresses T6, SotB E29A (Escherichia coli, UniProt P31122, E29A).
T6 construct: The full-length sotB and lapC genes from the E. coli MG1655 genome were subcloned into the cloning vector pET28a; 8xHis (C); made in house; host or cells: E. coli C43(DE3)
T6 sequence (P31122 1-396 E29A): T2 sequence (P31122 1-396 S339A) with E29A, A339S
The test can be described thus: SPR affinity assay, SotB variant E29A. Conditions: read-out: KD, binding affinity with E29A. As for the experimental part: as §1, with “The small molecules were diluted with PBS buffer (2 mM of KH2PO4, 10 mM of Na2HPO4, 2.7 mM of KCl, and 137 mM of NaCl at pH 7.4), and the concentration was shown in the experimental results. The flow rate for small molecules was performed at 20 μl/min. The binding time of small molecule and ligand was 240 s, and the dissociation was 240 s. The analysis software used for the experimental results was TraceDrawer, and the analysis method was one-to-one analysis model.” left out

In another test the target is XlyE. On the set-up: method as in Sun et al., 2012. Conditions: ref Sun et al., 2012; read-out: Binding affinity between XlyE and its substrate; cited from earlier work.
For test [3], the system named is intact E. coli MG1655 strain. The test can be described thus: Growth curve (L-arabinose inhibition / D-xylose competition) assay, intact MG1655. Type of test: cell-based, Escherichia coli. The text has this:
In the process of sotB gene knockout, two plasmids were introduced into E. coli MG1655 strain: the plasmid pEcCas expressing Cas9 protein (kanamycin resistance) and the plasmid pEcgRNA/sotB expressing related gRNA (spectinomycin resistance). The pEcCas plasmid was successfully eliminated in this study. […] Thus, the sotB-deletion strain has resistance to spectinomycin. In order to carry out the related L-arabinose inhibition assay more strictly, the same plasmid (pEcgRNA/sotB) was then transformed into intact E. coli MG1655 cells, and the growth conditions of the two strains were measured as follows: The E. coli MG1655 cells (intact cells and sotB-deletion cells) were grown in liquid LB medium containing spectinomycin (50 μg/ml) at 37°C for overnight. The cells were then diluted to an OD600 value of 0.8 with liquid LB medium containing spectinomycin (50 μg/ml). Then, the cells were further diluted 1,000 times with liquid LB medium containing spectinomycin (50 μg/ml). The diluted cells were added to a 96-well plate (200 μl/well). Then, L-arabinose was added with final concentrations of 0 μM, 10 μM, 100 μM, 1 mM, 10 mM, and 100 mM, respectively. The 96-well plate was incubated at 37°C, and the OD600 value was measured every 1 h with a microplate reader. For the competition assay, the intact MG1655 cells diluted 1,000 times were divided into two parts and then added into 96-well plate (200 μl/well). One part was directly added with D-xylose at a final concentration of 0, 1, and 10 mM, respectively; the other part was first added with L-arabinose at a final concentration of 10 mM, then D-xylose was added with final concentrations of 0, 1, and 10 mM, respectively. The method of growth curve measurement is the same as above. All the experiments were repeated at least three times.

Test [4] addresses T1, SotB. Conditions: ref Koita and Rao, 2012; cited from earlier work.
The target in the next test is MelB. More on the design: method as in Ethayathulla et al., 2014. Conditions: ref Ethayathulla et al., 2014; read-out: Binding affinity between MelB and the substrate; cited from earlier work.
Another test concerns the target MdfA. On the set-up: method as in Heng et al., 2015. Conditions: ref Heng et al., 2015; read-out: Binding affinity between MdfA and the substrate; cited from earlier work.
The target in a further test is FucP. On the set-up: method as in Dang et al., 2010. The note with it: ref Dang et al., 2010; read-out: Binding affinity between FucP and the substrate; cited from earlier work.
[5] abbreviates: SPR, wild-type SotB immobilised, one-to-one model, read-out: KD (equilibrium dissociation constant), binding affinity with SotB.

Residue numbers refer to the chain shown, from its start. Where two headings read alike, the source gives them in different places.

T1 sequence (P31122 whole entry): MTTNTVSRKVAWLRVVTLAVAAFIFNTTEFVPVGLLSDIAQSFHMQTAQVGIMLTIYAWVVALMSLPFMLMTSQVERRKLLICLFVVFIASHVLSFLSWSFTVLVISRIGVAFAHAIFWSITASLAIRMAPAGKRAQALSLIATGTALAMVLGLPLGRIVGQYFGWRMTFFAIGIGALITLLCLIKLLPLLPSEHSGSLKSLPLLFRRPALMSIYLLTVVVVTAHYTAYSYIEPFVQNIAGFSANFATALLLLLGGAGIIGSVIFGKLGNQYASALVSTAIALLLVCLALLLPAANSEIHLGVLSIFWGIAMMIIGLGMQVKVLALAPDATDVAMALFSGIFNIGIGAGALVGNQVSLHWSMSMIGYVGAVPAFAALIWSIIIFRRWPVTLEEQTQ

In the case of ^3H-L-arabinose, the “Accumulation in cells expressing wild-type SotB relative to empty vector pET28a” value at SotB [1] is given as “significant reduced accumulation”.
For the molecule `OC[C@H]1OC(O)[C@H](O)[C@@H](O)[C@@H]1O` (stereo partly drawn) [D-glucose], the Kd at SotB [2] (setting [5]) worked out at 2.6 mM.
`O=C(CO)[C@@H](O)[C@H](O)[C@H](O)CO` [D-fructose] had a Kd at SotB [2] of 6.6 mM.
With `CC(C)S[C@@H]1O[C@H](CO)[C@H](O)[C@H](O)[C@H]1O` [IPTG, isopropyl-β-D-1-thiogalactopyranoside], the Kd at SotB S339A stood at 7.6 mM; at SotB W119A it was 6.7 mM; on SotB N343A, 15 mM; on SotB [2] (setting [5]), 10.2 mM; on SotB H115A it was 13.7 mM; at SotB E29A, 7.6 mM. Moreover, the “Binding affinity with SotB, fold lower than that of L-arabinose with SotB” value at SotB [2] (SPR, wild-type SotB) is reported as approximately 2.5 fold.
With `O=C[C@H](O)[C@@H](O)[C@H](O)CO` [D-xylose], the Kd on XlyE is 0.35 mM; at SotB [2] (setting [5]), 0.47 mM. Moreover, the “Binding affinity to SotB, fold higher than that of L-arabinose to SotB” value at SotB [2] (SPR, wild-type SotB) was found to be 8.7 fold. The “Effect on growth (OD600 growth curve)” value in [3] (intact MG1655, 1 mM D-xylose, without L-arabinose) was “did not cause any growth inhibition”; in [3] (intact MG1655, 10 mM D-xylose in the presence of 10 mM L-arabinose) it was “inhibit the growth”; in test [3] (intact MG1655, 10 mM D-xylose, without L-arabinose), “did not cause any growth inhibition”. Further, the “Transport by SotB” value on SotB [4] is given as “cannot transport”.
Turning to `OC[C@H]1O[C@H](OCC2O[C@@H](O)[C@H](O)[C@@H](O)[C@@H]2O)[C@H](O)[C@@H](O)[C@H]1O` (stereo partly drawn) [melibiose], the Kd at MelB is 1 mM.
For the molecule `OC[C@H]1OC(O)[C@@H](O)[C@@H](O)[C@@H]1O` (stereo partly drawn) [D-mannose], the Kd at SotB [2] (setting [5]) was determined as 3.1 mM.
Regarding `O=C(N[C@H](CO)[C@H](O)c1ccc([N+](=O)[O-])cc1)C(Cl)Cl` [Chloramphenicol], the Kd on MdfA is 0.075 mM.
With `C[C@H](O)[C@@H](O)[C@@H](O)[C@H](O)C=O` [fucose], on FucP, the Kd was 0.47 mM.

The record behind these values is article PMC9650428, “Mutagenesis and functional analysis of SotB: A multidrug transporter of the major facilitator superfamily from Escherichia coli” (Frontiers in Microbiology, 2022).
